Here are results for 17 molecules from patent US8404708B2, “Dual NK1/NK3 receptor antagonists” (Hoffmann-La Roche Inc., priority 2004, dated 2013).

SMILES strings stand for the structures. Where two headings read alike, the source gives them in different places.

In test [1] the target is human NK1 receptor (Homo sapiens, UniProt P25103). The test can be described thus: NK1 receptor binding, [3H]substance P displacement, CHO cell membranes.
Test [2] addresses T1, Recombinant human NK3 (hNK3) receptor (Homo sapiens, UniProt P29371).
T1 construct: expressed in transfected cells
T1 sequence (P29371 1-465): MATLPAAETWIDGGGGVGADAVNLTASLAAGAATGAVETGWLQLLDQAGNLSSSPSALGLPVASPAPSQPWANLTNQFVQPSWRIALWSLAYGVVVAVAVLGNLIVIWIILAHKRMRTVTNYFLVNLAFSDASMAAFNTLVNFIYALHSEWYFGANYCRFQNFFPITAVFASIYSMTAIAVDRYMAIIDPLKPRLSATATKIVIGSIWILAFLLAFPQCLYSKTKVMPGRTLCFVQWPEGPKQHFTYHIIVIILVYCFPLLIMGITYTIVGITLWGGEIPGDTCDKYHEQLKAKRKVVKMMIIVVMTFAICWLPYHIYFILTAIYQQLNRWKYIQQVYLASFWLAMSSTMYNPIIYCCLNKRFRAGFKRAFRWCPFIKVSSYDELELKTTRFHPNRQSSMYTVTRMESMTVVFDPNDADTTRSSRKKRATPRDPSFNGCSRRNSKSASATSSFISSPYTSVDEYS
As to the kind of experiment: NK3 receptor binding, [3H]SR142801 displacement, membrane preparations. The protocol: Non specific binding was determined using 10 μM SB222200. Assay buffer consisted of Tris-HCl (50 mM, pH 7.4), BSA (0.1%), MnCl2 (4 mM) and phosphoramidon (1 μM). Membrane preparations of hNK3 receptors (approximately 2.5 μg/well in a 96 well plate) were used to initiate the incubation for 90 min at room temperature. This assay was terminated by rapid filtration under vacuum through GF/C filters, presoaked for 90 min with PEI (0.3%), with 3×0.5 ml washes of ice-cold Tris buffer (50 mM, pH 7.4) containing 0.1% BSA. The radioactivity retained on the filters was measured by scintillation counting. All assays were performed in duplicate in at least two separate experiments.

The mark [3] stands for this setting: first value of the cell pKi NK1/NK3, human NK1 receptor, [3H]substance P.
[4] abbreviates: second value of the cell pKi NK1/NK3, hNK3 receptor, [3H]SR142801.
Setting [5] is: first value of the cell NK1/NK3, read-out: pKi NK1 (converted).
[6] abbreviates: second value of the cell NK1/NK3, read-out: pKi NK3 (converted).

human NK1 receptor, sequence (P25103 whole entry): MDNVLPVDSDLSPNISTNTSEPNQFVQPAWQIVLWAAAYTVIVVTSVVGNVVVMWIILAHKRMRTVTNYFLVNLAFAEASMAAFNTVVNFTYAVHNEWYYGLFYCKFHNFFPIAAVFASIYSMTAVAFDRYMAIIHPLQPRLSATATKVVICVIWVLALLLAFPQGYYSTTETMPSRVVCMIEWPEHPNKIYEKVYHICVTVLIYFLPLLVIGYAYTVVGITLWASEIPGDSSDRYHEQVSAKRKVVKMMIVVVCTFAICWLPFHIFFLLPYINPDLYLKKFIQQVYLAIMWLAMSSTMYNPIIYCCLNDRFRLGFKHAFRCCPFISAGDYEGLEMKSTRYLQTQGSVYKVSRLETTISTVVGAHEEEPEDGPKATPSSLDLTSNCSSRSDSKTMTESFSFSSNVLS

`CN(C(=O)C(C)(C)c1cc(C(F)(F)F)cc(C(F)(F)F)c1)c1cnc(N2CC[C@@H](O)[C@@H](CO)C2)cc1-c1ccccc1Cl` (racemic) [Example 194, (3RS,4RS)-2-(3,5-Bis-trifluoromethyl-phenyl)-N-[4′-(2-chloro-phenyl)-4-hydroxy-3-hydroxymethyl-3,4,5,6-tetrahydro-2H-[1,2′]bipyridinyl-5′-yl]-N-methyl-isobutyramide]: the Ki in test [1] (setting [3]) was 1.66 nM; in test [2] (setting [4]), 17.4 nM.

On to `CN(CC(O)CO)c1cc(-c2ccccc2Cl)c(N(C)C(=O)C(C)(C)c2cc(C(F)(F)F)cc(C(F)(F)F)c2)cn1` (racemic) [Example 58, (RS)-2-(3,5-Bis-trifluoromethyl-phenyl)-N-{4-(2-chloro-phenyl)-6-[(2,3-dihydroxy-propyl)-methyl-amino]-pyridin-3-yl}-N-methyl-isobutyramide], for which the Ki is 2.4 nM in test [1] (setting [3]) and 5.75 nM in test [2] (setting [4]).

`CN(C(=O)C(C)(C)c1cc(C(F)(F)F)cc(C(F)(F)F)c1)c1cnc(N2C[C@H](O)C[C@H]2CO)cc1-c1ccccc1N` [Example 213, (2S,4R)-N-[4-(2-Amino-phenyl)-6-(4-hydroxy-2-hydroxymethyl-pyrrolidin-1-yl)-pyridin-3-yl]-2-(3,5-bis-trifluoromethyl-phenyl)-N-methyl-isobutyramide]: the Ki in test [1] (setting [5]) is 0.661 nM; in test [2] (setting [6]), 3.24 nM.

`Cc1cc(C)cc(C(C)(C)C(=O)N(C)c2cnc(N3C[C@H](O)C[C@H]3CO)cc2-c2ccccc2C)c1` [Example 20, (2S,4R)-2-(3,5-Dimethyl-phenyl)-N-[6-(4-hydroxy-2-hydroxymethyl-pyrrolidin-1-yl)-4-o-tolyl-pyridin-3-yl]-N-methyl-isobutyramide]: the Ki is 1.15 nM in test [1] (setting [3]) and 6.17 nM in test [2] (setting [4]).

As to `Cc1cc(F)ccc1-c1cc(N2CC[C@@H](O)[C@H]2CO)ncc1N(C)C(=O)C(C)(C)c1cc(C(F)(F)F)cc(C(F)(F)F)c1` [Example 156, (2R,3R)-2-(3,5-Bis-trifluoromethyl-phenyl)-N-[4-(4-fluoro-2-methyl-phenyl)-6-(3-hydroxy-2-hydroxymethyl-pyrrolidin-1-yl)-pyridin-3-yl]-N-methyl-isobutyramide], the Ki is 1.74 nM in test [1] (setting [3]) and 1.58 nM in test [2] (setting [4]).

In the case of `CN(C(=O)C(C)(C)c1cc(C(F)(F)F)cc(C(F)(F)F)c1)c1cnc(N[C@H]2CCC[C@@H]2O)cc1-c1ccccc1Cl` [Example 153, (1S,2S)-2-(3,5-Bis-trifluoromethyl-phenyl)-N-[4-(2-chloro-phenyl)-6-(2-hydroxy-cyclopentylamino)-pyridin-3-yl]-N-methyl-isobutyramide], the Ki in test [1] (setting [3]) was 0.49 nM; in test [2] (setting [4]), 4.07 nM.

In the case of `Cc1cc(F)ccc1-c1cc(N(C)C(CO)CO)ncc1N(C)C(=O)C(C)(C)c1cc(C(F)(F)F)cc(C(F)(F)F)c1` [Example 196, 2-(3,5-Bis-trifluoromethyl-phenyl)-N-{4-(4-fluoro-2-methyl-phenyl)-6-[(2-hydroxy-1-hydroxymethyl-ethyl)-methyl-amino]-pyridin-3-yl}-N-methyl-isobutyramide], the Ki in test [1] (setting [3]) was 1.74 nM; in test [2] (setting [4]), 4.57 nM.

Turning to `C[C@H](CO)Nc1cc(-c2ccccc2Cl)c(N(C)C(=O)C(C)(C)c2cc(C(F)(F)F)cc(C(F)(F)F)c2)cn1` [Example 80, (R)-2-(3,5-Bis-trifluoromethyl-phenyl)-N-[4-(2-chloro-phenyl)-6-(2-hydroxy-1-methyl-ethylamino)-pyridin-3-yl]-N-methyl-isobutyramide], the Ki is 1.26 nM in test [1] (setting [3]) and 8.91 nM in test [2] (setting [4]).

For `Cc1cc(F)ccc1-c1cc(N2CC[C@H](N(C)S(C)(=O)=O)C2)ncc1N(C)C(=O)C(C)(C)c1cc(C(F)(F)F)cc(C(F)(F)F)c1` [Example 105, (S)-2-(3,5-Bis-trifluoromethyl-phenyl)-N-{4-(4-fluoro-2-methyl-phenyl)-6-[3-(methanesulfonyl-methyl-amino)-pyrrolidin-1-yl]-pyridin-3-yl}-N-methyl-isobutyramide], the Ki in test [1] (setting [3]) is 1.02 nM; in test [2] (setting [4]) it was 5.25 nM.

Take `Cc1ccccc1-c1cc(N2CCC[C@@H]2CO)ncc1N(C)C(=O)C(C)(C)c1cc(C(F)(F)F)cc(C(F)(F)F)c1` [Example 168, (R)-2-(3,5-Bis-trifluoromethyl-phenyl)-N-[6-(2-hydroxymethyl-pyrrolidin-1-yl)-4-o-tolyl-pyridin-3-yl]-N-methyl-isobutyramide]: the results for the Ki in test [1] (setting [3]) and in test [2] (setting [4]) were 2.09 nM and 10 nM, respectively.

Regarding `CN(C(=O)C(C)(C)c1cc(C(F)(F)F)cc(C(F)(F)F)c1)c1cnc(N(CCO)CCCO)cc1-c1ccccc1Cl` [Example 150, 2-(3,5-Bis-trifluoromethyl-phenyl)-N-{4-(2-chloro-phenyl)-6-[(2-hydroxy-ethyl)-(3-hydroxy-propyl)-amino]-pyridin-3-yl}-N-methyl-isobutyramide], the Ki in test [1] (setting [3]) is 1.32 nM; in test [2] (setting [4]), 0.977 nM.

For the molecule `CN(C(=O)C(C)(C)c1cc(C(F)(F)F)cc(C(F)(F)F)c1)c1cnc(N2CC[C@H](O)[C@H]2CO)cc1-c1cccc(Cl)c1Cl` [Example 271, (2R,3S)-2-(3,5-Bis-trifluoromethyl-phenyl)-N-[4-(2,3-dichloro-phenyl)-6-(3-hydroxy-2-hydroxymethyl-pyrrolidin-1-yl)-pyridin-3-yl]-N-methyl-isobutyramide], the results for the Ki in test [1] (setting [5]) and in test [2] (setting [6]) were 3.02 nM and 1.38 nM, respectively.

In the case of `CCN(CCO)c1cc(-c2ccccc2C)c(N(C)C(=O)C(C)(C)c2cc(C(F)(F)F)cc(C(F)(F)F)c2)cn1` [Example 118, 2-(3,5-Bis-trifluoromethyl-phenyl)-N-{6-[ethyl-(2-hydroxy-ethyl)-amino]-4-o-tolyl-pyridin-3-yl}-N-methyl-isobutyramide], the results for the Ki in test [1] (setting [3]) and in test [2] (setting [4]) were 3.63 nM and 4.57 nM, respectively.

For the molecule `COc1cc(OC)cc(C(C)(C)C(=O)N(C)c2cnc(NCCO)cc2-c2ccc(F)cc2C)c1` [Example 401, 2-(3,5-Dimethoxy-phenyl)-N-[4-(4-fluoro-2-methyl-phenyl)-6-(2-hydroxy-ethylamino)-pyridin-3-yl]-N-methyl-isobutyramide], the Ki in test [2] (setting [6]) was 20 nM.

Consider `COc1cc(OC)cc(C(C)(C)C(=O)N(C)c2cnc(N3CCC[C@H]3CO)cc2-c2ccc(F)cc2C)c1` [Example 402, (S)-2-(3,5-Dimethoxy-phenyl)-N-[4-(4-fluoro-2-methyl-phenyl)-6-(2-hydroxymethyl-pyrrolidin-1-yl)-pyridin-3-yl]-N-methyl-isobutyramide], for which, in test [2] (setting [6]), the Ki was 4.68 nM.

`COc1cc(OC)cc(C(C)(C)C(=O)N(C)c2cnc(N3C[C@H](O)C[C@H]3CO)cc2-c2ccccc2C)c1` [Example 400, (2S,4R)-2-(3,5-Dimethoxy-phenyl)-N-[6-(4-hydroxy-2-hydroxymethyl-pyrrolidin-1-yl)-4-o-tolyl-pyridin-3-yl]-N-methyl-isobutyramide]: in test [2] (setting [6]), the Ki was 6.03 nM.

`COc1cc(OC)cc(C(C)(C)C(=O)N(C)c2cnc(N3C[C@H](O)C[C@H]3CO)cc2-c2ccc(F)cc2C)c1` [Example 403, (2S,4R)-2-(3,5-Dimethoxy-phenyl)-N-[4-(4-fluoro-2-methyl-phenyl)-6-(4-hydroxy-2-hydroxymethyl-pyrrolidin-1-yl)-pyridin-3-yl]-N-methyl-isobutyramide]: in test [2] (setting [6]), the Ki is 5.75 nM.
